Columns and labels:
Acetylcholinesterase = Acetylcholinesterase (Homo sapiens, UniProt P22303); assay: Inhibition of AChE by Ellman's method
Cholinesterase = Cholinesterase (Homo sapiens, UniProt P06276)
Sequence of Cholinesterase (P06276 whole entry): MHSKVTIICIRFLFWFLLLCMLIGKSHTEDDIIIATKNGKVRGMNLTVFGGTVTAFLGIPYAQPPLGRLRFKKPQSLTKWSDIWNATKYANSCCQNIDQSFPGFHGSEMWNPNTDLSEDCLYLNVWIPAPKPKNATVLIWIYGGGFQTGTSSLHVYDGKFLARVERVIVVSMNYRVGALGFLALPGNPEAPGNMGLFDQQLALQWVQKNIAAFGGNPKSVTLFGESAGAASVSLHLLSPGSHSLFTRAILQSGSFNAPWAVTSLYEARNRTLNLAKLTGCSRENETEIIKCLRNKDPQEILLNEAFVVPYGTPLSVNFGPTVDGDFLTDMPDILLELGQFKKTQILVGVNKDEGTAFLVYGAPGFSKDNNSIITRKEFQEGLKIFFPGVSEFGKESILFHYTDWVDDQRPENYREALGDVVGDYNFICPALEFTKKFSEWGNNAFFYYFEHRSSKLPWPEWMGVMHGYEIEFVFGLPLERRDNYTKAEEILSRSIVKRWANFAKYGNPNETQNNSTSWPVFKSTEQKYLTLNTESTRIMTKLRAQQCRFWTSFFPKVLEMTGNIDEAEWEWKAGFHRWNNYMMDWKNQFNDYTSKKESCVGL
Description: Inhibition of BChE by Ellman's method

Sequence of Acetylcholinesterase (P22303 whole entry): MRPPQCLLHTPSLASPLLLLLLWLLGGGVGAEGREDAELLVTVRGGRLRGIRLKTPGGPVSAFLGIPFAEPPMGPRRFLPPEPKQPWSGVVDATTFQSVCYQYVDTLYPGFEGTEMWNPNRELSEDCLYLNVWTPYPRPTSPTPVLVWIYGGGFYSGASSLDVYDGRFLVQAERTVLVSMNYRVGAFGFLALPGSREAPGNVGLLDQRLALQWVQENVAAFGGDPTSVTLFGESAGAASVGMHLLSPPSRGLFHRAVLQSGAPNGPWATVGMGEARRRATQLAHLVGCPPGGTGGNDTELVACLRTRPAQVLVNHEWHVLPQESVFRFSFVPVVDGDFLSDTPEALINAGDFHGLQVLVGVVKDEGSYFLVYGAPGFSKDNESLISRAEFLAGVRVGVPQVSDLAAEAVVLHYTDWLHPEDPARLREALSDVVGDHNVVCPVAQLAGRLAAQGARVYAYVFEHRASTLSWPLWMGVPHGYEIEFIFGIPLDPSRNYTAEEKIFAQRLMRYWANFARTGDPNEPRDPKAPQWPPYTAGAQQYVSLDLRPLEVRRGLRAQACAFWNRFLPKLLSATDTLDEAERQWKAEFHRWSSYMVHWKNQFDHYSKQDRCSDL

| Structure (SMILES) | IC50 (Acetylcholinesterase) [nM] | IC50 (Cholinesterase) [nM] |
| --- | --- | --- |
| O=C(NCCNc1c2c(nc3ccccc13)CCCC2)c1ccc(F)cc1 | 0.815 | 0.0449 |
| O=C(NCCCNc1c2c(nc3ccccc13)CCCC2)c1ccc(F)cc1 | 0.809 | 0.0212 |
| O=C(NCCCCNc1c2c(nc3ccccc13)CCCC2)c1ccc(F)cc1 | 0.784 | 0.0354 |

Source: ChEMBL document CHEMBL1811888, “Synthesis, biological activity and HPLC validation of 1,2,3,4-tetrahydroacridine derivatives as acetylcholinesterase inhibitors” (Eur J Med Chem, 2011)
